Test: excess molar enthalpy (molar enthalpy of mixing); xn = mol fraction of the nth substance listed
Conditions: 101 kPa, Liquid, Calvet calorimetry

CC(O)CN (stereo not drawn) [1-amino-2-propanol] + O
Conditions	excess molar enthalpy [kJ/mol]
298.15 K, x1 = 0.03	-0.497
298.15 K, x1 = 0.0501	-0.777
298.15 K, x1 = 0.0697	-1.01
298.15 K, x1 = 0.1002	-1.36
298.15 K, x1 = 0.1505	-1.75
298.15 K, x1 = 0.2012	-2.04
298.15 K, x1 = 0.2994	-2.39
298.15 K, x1 = 0.3496	-2.48
298.15 K, x1 = 0.3993	-2.48
298.15 K, x1 = 0.4465	-2.42
298.15 K, x1 = 0.494	-2.32
298.15 K, x1 = 0.6033	-2.01
298.15 K, x1 = 0.7155	-1.53
298.15 K, x1 = 0.7954	-1.13
298.15 K, x1 = 0.8847	-0.725
313.15 K, x1 = 0.0304	-0.56
313.15 K, x1 = 0.0701	-1.06
313.15 K, x1 = 0.1001	-1.36
313.15 K, x1 = 0.15	-1.76
313.15 K, x1 = 0.1999	-2.05
313.15 K, x1 = 0.3021	-2.44
313.15 K, x1 = 0.352	-2.52
313.15 K, x1 = 0.4015	-2.5
313.15 K, x1 = 0.5022	-2.33
313.15 K, x1 = 0.591	-2.04
313.15 K, x1 = 0.692	-1.64
313.15 K, x1 = 0.7864	-1.18
313.15 K, x1 = 0.8808	-0.73
323.15 K, x1 = 0.0301	-0.478
323.15 K, x1 = 0.05	-0.714
323.15 K, x1 = 0.0705	-1.02
323.15 K, x1 = 0.0999	-1.29
323.15 K, x1 = 0.1507	-1.68
323.15 K, x1 = 0.1993	-1.98
323.15 K, x1 = 0.2999	-2.3
323.15 K, x1 = 0.3533	-2.42
323.15 K, x1 = 0.4045	-2.45
323.15 K, x1 = 0.507	-2.32
323.15 K, x1 = 0.5849	-2.08
323.15 K, x1 = 0.6741	-1.76
323.15 K, x1 = 0.8125	-1.09
323.15 K, x1 = 0.9073	-0.601

CN(C)CCO [2-(N,N-dimethylamino)ethanol] + O
Conditions	excess molar enthalpy [kJ/mol]
298.15 K, x1 = 0.0299	-0.701
298.15 K, x1 = 0.0705	-1.45
298.15 K, x1 = 0.1008	-1.85
298.15 K, x1 = 0.1501	-2.28
298.15 K, x1 = 0.2052	-2.59
298.15 K, x1 = 0.301	-2.85
298.15 K, x1 = 0.349	-2.9
298.15 K, x1 = 0.4106	-2.89
298.15 K, x1 = 0.4544	-2.82
298.15 K, x1 = 0.5365	-2.58
298.15 K, x1 = 0.6599	-2.01
298.15 K, x1 = 0.7996	-1.25
298.15 K, x1 = 0.9156	-0.557
313.15 K, x1 = 0.0307	-0.701
313.15 K, x1 = 0.0695	-1.31
313.15 K, x1 = 0.1196	-1.92
313.15 K, x1 = 0.2038	-2.44
313.15 K, x1 = 0.2979	-2.73
313.15 K, x1 = 0.349	-2.78
313.15 K, x1 = 0.4063	-2.77
313.15 K, x1 = 0.4925	-2.58
313.15 K, x1 = 0.5885	-2.2
313.15 K, x1 = 0.7046	-1.69
313.15 K, x1 = 0.7891	-1.24
313.15 K, x1 = 0.9076	-0.607
323.15 K, x1 = 0.0301	-0.661
323.15 K, x1 = 0.0705	-1.32
323.15 K, x1 = 0.1217	-1.82
323.15 K, x1 = 0.2027	-2.33
323.15 K, x1 = 0.3001	-2.63
323.15 K, x1 = 0.3486	-2.69
323.15 K, x1 = 0.4001	-2.68
323.15 K, x1 = 0.4995	-2.5
323.15 K, x1 = 0.6093	-2.05
323.15 K, x1 = 0.7618	-1.29
323.15 K, x1 = 0.9197	-0.464

CNCCO [2-(methylamino)ethanol] + O
Conditions	excess molar enthalpy [kJ/mol]
298.15 K, x1 = 0.0302	-0.53
298.15 K, x1 = 0.0514	-0.902
298.15 K, x1 = 0.0695	-1.16
298.15 K, x1 = 0.1002	-1.48
298.15 K, x1 = 0.1485	-1.92
298.15 K, x1 = 0.1992	-2.24
298.15 K, x1 = 0.3021	-2.67
298.15 K, x1 = 0.3471	-2.75
298.15 K, x1 = 0.3996	-2.73
298.15 K, x1 = 0.4471	-2.67
298.15 K, x1 = 0.5017	-2.51
298.15 K, x1 = 0.5992	-2.15
298.15 K, x1 = 0.696	-1.71
298.15 K, x1 = 0.7988	-1.22
298.15 K, x1 = 0.8939	-0.688
313.15 K, x1 = 0.031	-0.535
313.15 K, x1 = 0.05	-0.902
313.15 K, x1 = 0.0704	-1.18
313.15 K, x1 = 0.1011	-1.59
313.15 K, x1 = 0.1488	-1.99
313.15 K, x1 = 0.2003	-2.3
313.15 K, x1 = 0.2983	-2.64
313.15 K, x1 = 0.3491	-2.68
313.15 K, x1 = 0.3986	-2.67
313.15 K, x1 = 0.5035	-2.51
313.15 K, x1 = 0.5833	-2.29
313.15 K, x1 = 0.686	-1.92
313.15 K, x1 = 0.8053	-1.28
313.15 K, x1 = 0.8956	-0.679
323.15 K, x1 = 0.0299	-0.742
323.15 K, x1 = 0.0501	-1.11
323.15 K, x1 = 0.07	-1.36
323.15 K, x1 = 0.1008	-1.66
323.15 K, x1 = 0.1504	-1.98
323.15 K, x1 = 0.2004	-2.22
323.15 K, x1 = 0.2985	-2.57
323.15 K, x1 = 0.3492	-2.64
323.15 K, x1 = 0.4023	-2.65
323.15 K, x1 = 0.5108	-2.48
323.15 K, x1 = 0.6095	-2.14
323.15 K, x1 = 0.6956	-1.73
323.15 K, x1 = 0.8039	-1.17
323.15 K, x1 = 0.8815	-0.749

NCCCO [3-amino-1-propanol] + O
Conditions	excess molar enthalpy [kJ/mol]
298.15 K, x1 = 0.0299	-0.404
298.15 K, x1 = 0.0705	-0.927
298.15 K, x1 = 0.1203	-1.52
298.15 K, x1 = 0.2	-2.13
298.15 K, x1 = 0.2982	-2.5
298.15 K, x1 = 0.3452	-2.6
298.15 K, x1 = 0.4067	-2.61
298.15 K, x1 = 0.4989	-2.46
298.15 K, x1 = 0.593	-2.17
298.15 K, x1 = 0.7515	-1.53
298.15 K, x1 = 0.8969	-0.711
313.15 K, x1 = 0.0297	-0.483
313.15 K, x1 = 0.0702	-1.03
313.15 K, x1 = 0.12	-1.57
313.15 K, x1 = 0.2007	-2.11
313.15 K, x1 = 0.3015	-2.54
313.15 K, x1 = 0.3458	-2.63
313.15 K, x1 = 0.3982	-2.65
313.15 K, x1 = 0.5034	-2.5
313.15 K, x1 = 0.6045	-2.12
313.15 K, x1 = 0.7564	-1.38
313.15 K, x1 = 0.9333	-0.481
323.15 K, x1 = 0.0298	-0.643
323.15 K, x1 = 0.0718	-1.21
323.15 K, x1 = 0.1192	-1.66
323.15 K, x1 = 0.1996	-2.14
323.15 K, x1 = 0.3018	-2.54
323.15 K, x1 = 0.3493	-2.65
323.15 K, x1 = 0.3947	-2.67
323.15 K, x1 = 0.5038	-2.5
323.15 K, x1 = 0.605	-2.16
323.15 K, x1 = 0.7594	-1.42
323.15 K, x1 = 0.8801	-0.753

NCCNCCO [N-(2-aminoethyl)ethanolamine] + O
Conditions	excess molar enthalpy [kJ/mol]
298.15 K, x1 = 0.0298	-0.771
298.15 K, x1 = 0.0496	-1.27
298.15 K, x1 = 0.0699	-1.71
298.15 K, x1 = 0.0992	-2.24
298.15 K, x1 = 0.1503	-3
298.15 K, x1 = 0.2015	-3.45
298.15 K, x1 = 0.2962	-3.91
298.15 K, x1 = 0.2982	-3.92
298.15 K, x1 = 0.3484	-4.01
298.15 K, x1 = 0.3994	-3.96
298.15 K, x1 = 0.4454	-3.77
298.15 K, x1 = 0.4962	-3.49
298.15 K, x1 = 0.505	-3.43
298.15 K, x1 = 0.5922	-2.87
298.15 K, x1 = 0.6969	-2.19
298.15 K, x1 = 0.77	-1.71
298.15 K, x1 = 0.9077	-0.779
313.15 K, x1 = 0.0299	-0.936
313.15 K, x1 = 0.0498	-1.32
313.15 K, x1 = 0.0701	-1.72
313.15 K, x1 = 0.1	-2.34
313.15 K, x1 = 0.1495	-3.05
313.15 K, x1 = 0.2002	-3.62
313.15 K, x1 = 0.2956	-4.12
313.15 K, x1 = 0.3547	-4.23
313.15 K, x1 = 0.4001	-4.15
313.15 K, x1 = 0.4461	-3.98
313.15 K, x1 = 0.4893	-3.78
313.15 K, x1 = 0.6009	-3.15
313.15 K, x1 = 0.6723	-2.67
313.15 K, x1 = 0.7961	-1.71
313.15 K, x1 = 0.9041	-0.888
323.15 K, x1 = 0.0301	-0.617
323.15 K, x1 = 0.0498	-1.03
323.15 K, x1 = 0.0697	-1.59
323.15 K, x1 = 0.0992	-2.04
323.15 K, x1 = 0.1491	-2.92
323.15 K, x1 = 0.1988	-3.41
323.15 K, x1 = 0.3014	-3.81
323.15 K, x1 = 0.3527	-3.94
323.15 K, x1 = 0.3958	-3.92
323.15 K, x1 = 0.4971	-3.6
323.15 K, x1 = 0.5908	-3.03
323.15 K, x1 = 0.7056	-2.24
323.15 K, x1 = 0.7484	-1.94
323.15 K, x1 = 0.8999	-0.82

CN(CCO)CCO [N-methyldiethanolamine] + O
313.15 K
Conditions	excess molar enthalpy [kJ/mol]
x1 = 0.1004	-1.41
x1 = 0.1501	-1.8
x1 = 0.1986	-2.07
x1 = 0.2593	-2.27
x1 = 0.3681	-2.31
x1 = 0.4312	-2.24
x1 = 0.4941	-2.07
x1 = 0.593	-1.74
x1 = 0.7778	-1.05
x1 = 0.8203	-0.869

OCCNCCO [diethanolamine] + O
298.15 K
Conditions	excess molar enthalpy [kJ/mol]
x1 = 0.0553	-0.685
x1 = 0.0732	-0.896
x1 = 0.1001	-1.14
x1 = 0.2005	-1.78
x1 = 0.2943	-2.08
x1 = 0.34	-2.13
x1 = 0.4007	-2.08
x1 = 0.4969	-1.92
x1 = 0.5945	-1.61
x1 = 0.6597	-1.39
x1 = 0.7421	-1.09
x1 = 0.8312	-0.721
x1 = 0.9283	-0.302
